Measured values taken from ChEMBL document CHEMBL2417387, “Development of a pharmacophore model for the catecholamine release-inhibitory peptide catestatin: virtual screening and functional testing identify novel small molecule therapeutics of hypertension” (Bioorg Med Chem, 2013).
Active and inactive are the calls of the source. The rule behind the calls is not given here.

What was measured:
PC-12 [1] = experiment: Noncompetitive inhibition of nicotinic cholinergic receptor in rat PC12 cells assessed as inhibition of 100 to 1000 uM nicotine-induced [3H]-norepinephrine release at 5 uM after 30 mins by liquid scintillation counting analysis; type: cell-based
[2] = Inhibition of nicotinic cholinergic receptor in rat PC12 cells assessed as inhibition of nicotine-stimulated [3H]-norepinephrine release after 30 mins by liquid scintillation counting analysis; type: cell-based; settings: PC-12
PC-12 [3] = experiment: Inhibition of ionomycin-mediated catecholamine secretion in rat PC12 cells at 5 uM after 30 mins by liquid scintillation counting analysis; type: functional, cell-based
PC-12 [4] = experiment: Inhibition of ATP-induced P2X receptor activation in rat PC12 cells assessed as inhibition of catecholamine secretion at 5 uM after 30 mins by liquid scintillation counting analysis; type: cell-based
PC-12 [5] = experiment: Inhibition of KCl-induced membrane depolarization in rat PC12 cells assessed as inhibition of catecholamine secretion at 5 uM after 30 mins by liquid scintillation counting analysis; type: functional, cell-based
PC-12 [6] = experiment: Inhibition of nicotinic cholinergic receptor-mediated [3H]-norepinephrine release in rat PC12 cells after 30 mins by liquid scintillation counting analysis; type: cell-based
PC-12 [7] = experiment: Cytotoxicity against rat PC12 cells assessed as cell viability at 5 to 10 uM after 24 hrs by trypan blue exclusion assay relative to control; type: cell-based; settings: pc-12, 24 h
PC-12 [8] = experiment: Inhibition of BaCl2-induced potassium channel blockade in rat PC12 cells assessed as inhibition of catecholamine secretion at 5 uM after 30 mins by liquid scintillation counting analysis; type: functional, cell-based
PC-12 [9] = experiment: (§1) Inhibition of nicotinic cholinergic receptor in rat PC12 cells assessed as inhibition of nicotine-stimulated 45Ca2+ uptake after 2 mins by liquid scintillation counting analysis; type: cell-based
[10] = as §1; type: cell-based; settings: PC-12, 2 min
Mus musculus [11] = experiment: Antihypertensive activity in BPH/2J mouse polygenic hypertensive model assessed as reduction in heart rate at 5 ug/g, ip measured for 24 hrs by telemetry; type: functional
Mus musculus [12] = experiment: Antihypertensive activity in BPH/2J mouse polygenic hypertensive model assessed as reduction in systolic blood pressure at 5 ug/g, ip up to 60 mins by telemetry; type: functional, Artery
Mus musculus [13] = experiment: Antihypertensive activity in BPH/2J mouse polygenic hypertensive model assessed as reduction in diastolic blood pressure at 5 ug/g, ip up to 60 mins by telemetry; type: functional, Artery
Mus musculus [14] = experiment: Toxicity in BPH/2J mouse polygenic hypertensive model assessed as reflex tachycardia at 5 ug/g, ip measured for 24 hrs by telemetry; type: organism-based; settings: in vivo

## C[N+](C)(C)CC[N+]1(C)Cc2c(Cl)c(Cl)c(Cl)c(Cl)c2C1
PC-12 [1]
  inhibition: Active

## C/N=C(\NC)c1ccc(/N=C(\NC)c2ccc(/C(=N/c3ccc(/C(=N/C)NC)cc3)NC)cc2)cc1
[2]
  IC50: 1700 nM

## CCN(CC)CC(O)CNC1=N/C(=N/C(=N)Nc2ccc(Cl)c(Cl)c2)N=C(C)C1 (configuration not stated)
PC-12 [3]
  inhibition: inactive
PC-12 [1]
  inhibition: Active
[2]
  IC50: 680 nM
PC-12 [4]
  inhibition: inactive
PC-12 [5]
  inhibition: inactive
PC-12 [6]
  inhibition: inactive
PC-12 [7]
  Activity: Non-toxic
PC-12 [8]
  inhibition: inactive

## Nc1nc(N)c(/N=N/c2ccc(S(=O)(=O)Nc3ccccn3)cc2)cc1/N=N/c1ccccc1
[2]
  IC50: 2000 nM

## C/N=C(\NC)c1ccc(NC(=O)Nc2ccc(C)c(NC(=O)Nc3ccc(/C(=N/C)NC)cc3)c2)cc1
PC-12 [9]
  inhibition: Dose-dependent effect
[10]
  IC50: 100 nM
[2]
  IC50: 24 nM

## Nc1nc(N)c2nc(CNc3ccc(C(=O)N[C@@H](CCC(=O)O)C(=O)O)cc3)cnc2n1 [AMINOPTERIN]
[2]
  IC50: > 5000 nM

## CNC(=O)c1ccc(NC(=O)Nc2cccc(C3=NCCN3)c2)cc1NC(=O)Nc1cccc(C2=NCCN2)c1
[2]
  IC50: 1400 nM

## CCN1CCC(CNc2cc(C)nc(NC(=N)Nc3cc(Cl)cc(Cl)c3)n2)C1 (configuration not stated)
[2]
  IC50: 1900 nM

## C/N=C(\NC)c1ccc(NC(=O)Nc2cccc(NC(=O)Nc3ccc(/C(=N/C)NC)cc3)c2)cc1
PC-12 [9]
  inhibition: Dose-dependent effect
[10]
  IC50: 70 nM
[2]
  IC50: 41 nM

## CNC(=O)c1cc(NC(=O)Nc2cccc(C3=NCCN3)c2)cc(NC(=O)Nc2cccc(C3=NCCN3)c2)c1
PC-12 [9]
  inhibition: Dose-dependent effect
[10]
  IC50: 100 nM
PC-12 [3]
  inhibition: inactive
PC-12 [1]
  inhibition: Active
[2]
  IC50: 1000 nM
PC-12 [4]
  inhibition: inactive
PC-12 [5]
  inhibition: inactive
PC-12 [6]
  inhibition: inactive
PC-12 [7]
  Activity: Non-toxic
PC-12 [8]
  inhibition: inactive

## CC1(C)N=C(N)N=C(N)N1c1ccc(CNC(=O)Nc2ccccc2)cc1
[2]
  IC50: > 5000 nM

## CCN/C(=N\c1cccc(C2=NCCN2)c1)c1ccc(/C(=N/c2cccc(C3=NCCN3)c2)NCC)cc1
[2]
  IC50: 1600 nM

## Nc1ccc(CCCCc2nc(N)nc(N)c2-c2ccc(Cl)c(Cl)c2)cc1
[2]
  IC50: 2600 nM

## CCN1CCC(CNc2cc(C)nc(NC(=N)Nc3ccc(Cl)c(Cl)c3)n2)C1 (configuration not stated)
[2]
  IC50: 450 nM

## Cc1ccnc(NS(=O)(=O)c2ccc(/N=N/c3cc(/N=N/c4ccccc4)c(N)nc3N)cc2)n1
[2]
  IC50: > 5000 nM

## Cc1cc(NC(=O)NCc2ccc(N3C(N)=NC(N)=NC3(C)C)cc2)ccc1S(=O)(=O)F
[2]
  IC50: 870 nM

## Nc1nc(N)c(-c2ccc(Cl)cc2)c(CCc2ccc(NC(=O)CBr)cc2)n1
[2]
  IC50: 1500 nM

## C/N=C(\N)c1ccc(/N=C(\N)c2ccc(Cl)c(/C(N)=N/c3ccc(C(=N)NC)cc3)c2)cc1
[2]
  IC50: 1800 nM

## CCN1CCCC(Nc2cc(C)nc(NC(=N)Nc3ccc(Cl)c(Cl)c3)n2)C1 (configuration not stated)
[2]
  IC50: 1100 nM

## O=C(Nc1cc(C2=NCCN2)cc(C2=NCCN2)c1)Nc1cc(C2=NCCN2)cc(C2=NCCN2)c1
[2]
  IC50: > 5000 nM

## C/C(=N\NC(=N)N)c1cccc(NC(=S)Nc2cccc(/C(C)=N/NC(=N)N)c2)c1
Mus musculus [11]
  Activity: 180 bpm
PC-12 [9]
  inhibition: Dose-dependent effect
[10]
  IC50: 90 nM
Mus musculus [12]
  Activity: 33 mmHg
Mus musculus [13]
  Activity: 25 mmHg
[2]
  IC50: 17 nM
Mus musculus [14]
  Activity: Non-toxic
